The target in this assay is IRAK4 (Homo sapiens (Human), UniProt Q9NWZ3). Kind of assay: IRAK-4 AlphaScreen biochemical kinase assay. Conditions: 1 nM IRAK4, 1 mM ATP, 3.5 h at RT. The essentials:
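AlphaScreen read-out: streptavidin beads bind the biotinylated peptide and protein A beads bind the anti-phosphothreonine antibody, so energy transfer reports phosphorylation of the peptide. The kinase is human IRAK-4.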
On the technique in general: Bead proximity is the source of the signal in Alpha formats.

pIC50: −log10 of the molar value.

Chain of IRAK4 (Q9NWZ3 whole entry, species assumed): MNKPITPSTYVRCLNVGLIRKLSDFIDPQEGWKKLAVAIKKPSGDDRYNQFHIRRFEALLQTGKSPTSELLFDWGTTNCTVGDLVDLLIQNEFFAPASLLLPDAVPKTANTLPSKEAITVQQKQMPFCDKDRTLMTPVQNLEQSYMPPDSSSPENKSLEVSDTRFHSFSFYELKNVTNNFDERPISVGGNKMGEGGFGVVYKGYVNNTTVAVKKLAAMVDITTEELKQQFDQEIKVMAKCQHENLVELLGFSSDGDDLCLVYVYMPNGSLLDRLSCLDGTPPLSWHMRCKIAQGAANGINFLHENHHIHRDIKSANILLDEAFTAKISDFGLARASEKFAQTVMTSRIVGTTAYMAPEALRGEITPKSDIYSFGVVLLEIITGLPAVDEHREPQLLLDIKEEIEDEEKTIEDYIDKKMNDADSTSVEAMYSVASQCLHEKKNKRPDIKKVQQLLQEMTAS

The pIC50 is −log10 of the IC50, conventionally taken in molar units. A higher pIC50 goes with a small IC50. For `NCc1cccc(-c2ccc3cnn(-c4cccc(CO)n4)c3c2)n1` [Example 291, (6-(6-(6-(aminomethyl)pyridin-2-yl)-1H-indazol-1-yl)pyridin-2-yl)methanol], the pIC50 is > 7.00.

Turning to `CC(N)c1cccc(-c2ccc3cnn(-c4cccc(C(C)(C)N)n4)c3c2)n1` (stereo not shown) [Example 292, 2-(6-(6-(6-(1-aminoethyl)pyridin-2-yl)-1H-indazol-1-yl)pyridin-2-yl)propan-2-amine], the negative-log IC50 (pIC50) is 5.00 to 6.00.

Turning to `CCc1cccc(-c2ncc3ccc(-c4cccc(C(C)N)n4)cn23)n1` (stereo not shown) [Example 293, 1-(6-(3-(6-ethylpyridin-2-yl)imidazo[1,5-a]pyridin-6-yl)pyridin-2-yl)ethanamine], the pIC50 is > 7.00.

Turning to `CCC(N)c1cccc(-c2ccc3cnn(-c4cccc(CO)n4)c3c2)n1` (stereo not shown) [Example 294, (6-(6-(6-(1-aminopropyl)pyridin-2-yl)-1H-indazol-1-yl)pyridin-2-yl)methanol], the negative logarithm of the IC50 (pIC50) is > 7.00.

For the compound `Cc1cccc(-n2ncc3c(-c4ncc[nH]4)cc(-c4cccc(C(C)N)n4)cc32)n1` (stereo not shown) [Example 295, 1-(6-(4-(1H-imidazol-2-yl)-1-(6-methylpyridin-2-yl)-1H-indazol-6-yl)pyridin-2-yl)ethanamine], the negative logarithm of the IC50 (pIC50) is > 7.00.

`Cc1ccnc(-n2ncc3ccc(-c4cccc(C(C)N)n4)cc32)n1` (stereo not shown) [Example 296, 1-(6-(1-(4-methylpyrimidin-2-yl)-1H-indazol-6-yl)pyridin-2-yl)ethanamine]: the negative-log IC50 (pIC50) was 5.00 to 6.00.

Turning to `CC(N)c1cccc(-c2ccc3cnn(-c4nccc(C(F)(F)F)n4)c3c2)n1` (stereo not shown) [Example 297, 1-(6-(1-(4-(trifluoromethyl)pyrimidin-2-yl)-1H-indazol-6-yl)pyridin-2-yl)ethanamine], the pIC50 was > 7.00.

`Cc1cccc(-n2ncc3ccc(-c4cccc(C(C)(C)N)n4)cc32)n1` [Example 298, 2-(6-(1-(6-methylpyridin-2-yl)-1H-indazol-6-yl)pyridin-2-yl)propan-2-amine] had a negative logarithm of the IC50 (pIC50) of 6.00 to 7.00.

Compound `Cc1cccc(-n2ncc3ccc(-c4cn(C)c(C(C)O)n4)cc32)n1` (stereo not shown) [Example 299, 1-(1-methyl-4-(1-(6-methylpyridin-2-yl)-1H-indazol-6-yl)-1H-imidazol-2-yl)ethanol] gave a pIC50 of 5.00 to 6.00.

For the compound `Cc1cccc(-n2ncc3ccc(-c4cn(C)c(CN)n4)cc32)n1` [Example 300, (1-methyl-4-(1-(6-methylpyridin-2-yl)-1H-indazol-6-yl)-1H-imidazol-2-yl)methanamine], the pIC50 is 5.00 to 6.00.

Consider `CC(N)c1cccc(-c2ccc3cnn(-c4cccc(C(C)(C)C(N)=O)n4)c3c2)n1` (stereo not shown) [Example 301, 2-(6-(6-(6-(1-aminoethyl)pyridin-2-yl)-1H-indazol-1-yl)pyridin-2-yl)-2-methylpropanamide], for which the negative logarithm of the IC50 (pIC50) is 6.00 to 7.00.

Take `CC(N)c1cccc(-c2ccc3cnc(-c4cccc(CO)n4)n3c2)n1` (stereo not shown) [Example 302, (6-(6-(6-(1-aminoethyl)pyridin-2-yl)imidazo[1,5-a]pyridin-3-yl)pyridin-2-yl)methanol]: the pIC50 is > 7.00.

Take `Cc1cccc(-n2ncc3c(-c4nccs4)cc(-c4cccc(C(C)N)n4)cc32)n1` (stereo not shown) [Example 303, 1-(6-(1-(6-methylpyridin-2-yl)-4-(thiazol-2-yl)-1H-indazol-6-yl)pyridin-2-yl)ethanamine]: the pIC50 was > 7.00.

As to `Cc1cccc(-n2ncc3ccc(-c4cccc(C5(C#N)CCC5)n4)cc32)n1` [Example 304, 1-(6-(1-(6-methylpyridin-2-yl)-1H-indazol-6-yl)pyridin-2-yl)cyclobutanecarbonitrile], the pIC50 was > 7.00.

`Cc1cccc(-n2ncc3ccc(-c4cn(C)c(C(C)N)n4)cc32)n1` (stereo not shown) [Example 305, 1-(1-methyl-4-(1-(6-methylpyridin-2-yl)-1H-indazol-6-yl)-1H-imidazol-2-yl)ethanamine] gave a pIC50 of 6.00 to 7.00.

The compound `Cc1cccc(-n2ncc3ccc(-c4ccccn4)cc32)n1` [Example 306, 1-(6-methylpyridin-2-yl)-6-(pyridin-2-yl)-1H-indazole] gave a pIC50 of 6.00 to 7.00.
